Measurements published in patent US9284271B2, “Compounds for the treatment of neurodegenerative diseases” (Katholieke Universiteit Leuven, K.U. Leuven R&D, priority 2010, dated 2016).

System: M17-TAU P301L cells
Assay: Tau-induced toxicity experiment: LDH leakage of retinoic acid incubated M17-TAU P301L cells
Assay type: cell-based
Conditions: Homo sapiens, Neuroblastoma cell, 168 h; reduction of LDH activity of retinoic acid incubated M17-TAU P301L neuroblastoma cells; 7 days incubation; Promega Cytotox 96 assay
Source text: A TAU expression plasmid was constructed by sub-cloning the cDNA of human TAU-P301L (encoding for TAU with proline 301 substituted by a leucine residue) into mammalian expression vector pcDNA3.1 resulting in plasmid pcDNA3.1-TAU P301L. Plasmids pcDNA3.1 and pcDNA3.1-TAU P301L were transfected to human neuroblastoma cells ([…]; ATCC No. CRL-2267) and independent clonal lines with the plasmids stably integrated into the genome were selected. […] Expression of the TAU P301L genes in the cell lines was confirmed by Western analysis.
In degenerated or dead cells lactate dehydrogenase (LDH) is leaked out of the cells into the extracellular environment due to a loss of plasma-membrane integrity. This principle was used to determine cytotoxicity by quantifying the level of leaked LDH into the growth medium.
The detailed method for determining TAU cytotoxicity was as follows: From appropriate precultures of M17-3.1 and M17-TAU(P301L) cells were seeded at 2500 cells/cm2 in Optimem Reduced Serum without phenol red (Gibco, Cat. 31985-047) supplemented with 1% fetal calf serum, 1 mM sodium pyruvate, 1× non-essential amino acids, 500 μg/ml G418 0.5× antibiotic/antimycotic. After 3 h of incubation at 37° C./5% CO2 1 volume of Optimem Reduced Serum (same as described above; except without fetal calf serum) supplemented with 2.5 μM retinoic acid (RA) was added. The cells were further incubated for 7 days. Subsequently, LDH activity was determined using Promega Cytotox 96 Non-Radioactive cytotoxicity assay, (Cat. G1780) according the supplier's instructions.
The M17-TAU P301L cell line made it possible to assess the ability of novel compounds to counteract TAU cytotoxicity. […] These measurements were used to calculate EC50 values of table 2.
Exemplary compounds of the present invention are shown in table 2, with their chemical name and their EC50 value (expressed in nM) as determined from example 75 in the Tau-induced toxicity experiment.

Structure (SMILES) | EC50 [nM]
O=C(NCCc1c[nH]c2ccc(Cl)cc12)c1cccc(-c2cccc(F)c2)c1 [Cpd047, N-(2-(5-chloro-1H-indol-3-yl)ethyl)-3′-fluorobiphenyl-3-carboxamide] | 408
N#Cc1cccc(-c2ccccc2C(=O)NCCc2c[nH]c3ccc(Cl)cc23)c1 [Cpd048, N-(2-(5-chloro-1H-indol-3-yl)ethyl)-3′-cyanobiphenyl-2-carboxamide] | 232
N#Cc1cccc(-c2cccc(C(=O)NCCc3c[nH]c4ccc(Cl)cc34)c2)c1 [Cpd049, N-(2-(5-chloro-1H-indol-3-yl)ethyl)-3′-cyanobiphenyl-3-carboxamide] | 61
N#Cc1cccc(-c2ccc(C(=O)NCCc3c[nH]c4ccc(Cl)cc34)cc2)c1 [Cpd050, N-(2-(5-chloro-1H-indol-3-yl)ethyl)-3′-cyanobiphenyl-4-carboxamide] | 24
N#Cc1ccc(-c2ccccc2C(=O)NCCc2c[nH]c3ccc(Cl)cc23)cc1 [Cpd051, N-(2-(5-chloro-1H-indol-3-yl)ethyl)-4′-cyanobiphenyl-2-carboxamide] | 325
N#Cc1ccc(-c2cccc(C(=O)NCCc3c[nH]c4ccc(Cl)cc34)c2)cc1 [Cpd052, N-(2-(5-chloro-1H-indol-3-yl)ethyl)-4′-cyanobiphenyl-3-carboxamide] | 112
N#Cc1ccc(-c2ccc(C(=O)NCCc3c[nH]c4ccc(Cl)cc34)cc2)cc1 [Cpd053, N-(2-(5-chloro-1H-indol-3-yl)ethyl)-4′-cyanobiphenyl-4-carboxamide] | 85
O=C(NCCc1c[nH]c2ccc(Cl)cc12)c1ccccc1-c1ccccc1Cl [Cpd054, 2′-chloro-N-(2-(5-chloro-1H-indol-3-yl)ethyl)biphenyl-2-carboxamide] | 170
O=C(NCCc1c[nH]c2ccc(Cl)cc12)c1cccc(-c2ccccc2Cl)c1 [Cpd055, 2′-chloro-N-(2-(5-chloro-1H-indol-3-yl)ethyl)biphenyl-3-carboxamide] | 158
O=C(NCCc1c[nH]c2ccc(Cl)cc12)c1ccccc1-c1cccc(Cl)c1 [Cpd057, 3′-chloro-N-(2-(5-chloro-1H-indol-3-yl)ethyl)biphenyl-2-carboxamide] | 159
O=C(NCCc1c[nH]c2ccc(Cl)cc12)c1cccc(-c2cccc(Cl)c2)c1 [Cpd058, 3′-chloro-N-(2-(5-chloro-1H-indol-3-yl)ethyl)biphenyl-3-carboxamide] | 186
O=C(NCCc1c[nH]c2ccc(Cl)cc12)c1ccc(-c2cccc(Cl)c2)cc1 [Cpd059, 3′-chloro-N-(2-(5-chloro-1H-indol-3-yl)ethyl)biphenyl-4-carboxamide] | 130
O=C(NCCc1c[nH]c2ccc(Cl)cc12)c1cccc(-c2ccc(Cl)cc2)c1 [Cpd060, 4′-chloro-N-(2-(5-chloro-1H-indol-3-yl)ethyl)biphenyl-3-carboxamide] | 159
O=C(NCCc1c[nH]c2ccc(Cl)cc12)c1ccc(-c2ccc(Cl)cc2)cc1 [Cpd061, 4′-chloro-N-(2-(5-chloro-1H-indol-3-yl)ethyl)biphenyl-4-carboxamide] | 111
O=C(NCCc1c[nH]c2ccc(Cl)cc12)c1ccccc1-c1ccc(Cl)cc1 [Cpd063, 4′-chloro-N-(2-(5-chloro-1H-indol-3-yl)ethyl)biphenyl-2-carboxamide] | 154
O=C(NCCc1c[nH]c2ccc(Cl)cc12)c1ccccc1-c1cccc(C(F)(F)F)c1 [Cpd064, N-(2-(5-chloro-1H-indol-3-yl)ethyl)-3′-(trifluoromethyl)biphenyl-2-carboxamide] | 418
O=C(NCCc1c[nH]c2ccc(Cl)cc12)c1cccc(-c2ccccc2C(F)(F)F)c1 [Cpd065, N-(2-(5-chloro-1H-indol-3-yl)ethyl)-2′-(trifluoromethyl)biphenyl-3-carboxamide] | 89
O=C(NCCc1c[nH]c2ccc(Cl)cc12)c1ccc(-c2cccc(C(F)(F)F)c2)cc1 [Cpd066, N-(2-(5-chloro-1H-indol-3-yl)ethyl)-3′-(trifluoromethyl)biphenyl-4-carboxamide] | 92
